The supplement of paper PMC10307832

How the values were obtained:
Test in all cases: relative viability (nuclei count vs DMSO), 5 days (fraction); higher = more cells survive
201T = test system: 201T
Summary of the method: (§1)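 For relative viability, nuclei counts in treated wells were divided by those in vehicle wells. Lung cancer cell lines had been pin-tool dosed in 1536-well plates the day after seeding and cultured for 5 days, then fixed and stained in one step (final 0.05% Triton X-100, 1% formaldehyde, 1 ug/ml Hoechst) and imaged at 4×. Doses were one drug alone or a fixed anchor-drug dose plus five library-drug doses (not always all listed) in √10 steps, and values are duplicate-plate medians.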

A-427 = test system: A-427
Summary of the method: as §1

BEN = test system: BEN
Summary of the method: as §1

CAL-12T = test system: CAL-12T
Summary of the method: as §1

H3255 = test system: H3255
Summary of the method: as §1

LC-2-ad = test system: LC-2-ad
Summary of the method: as §1

LCLC-97TM1 = test system: LCLC-97TM1
Summary of the method: as §1

NCI-H1650 = test system: NCI-H1650
Summary of the method: as §1

NCI-H1651 = test system: NCI-H1651
Summary of the method: as §1

NCI-H1915 = test system: NCI-H1915
Summary of the method: as §1

NCI-H1944 = test system: NCI-H1944
Summary of the method: as §1

NCI-H2023 = test system: NCI-H2023
Summary of the method: as §1

NCI-H2087 = test system: NCI-H2087
Summary of the method: as §1

NCI-H441 = test system: NCI-H441
Summary of the method: as §1

NCI-H460 = test system: NCI-H460
Summary of the method: as §1

NCI-H520 = test system: NCI-H520
Summary of the method: as §1

NCI-H596 = test system: NCI-H596
Summary of the method: as §1

NCI-H650 = test system: NCI-H650
Summary of the method: as §1

NCI-H661 = test system: NCI-H661
Summary of the method: as §1

NCI-H727 = test system: NCI-H727
Summary of the method: as §1

PC-3 [JPC-3] = test system: PC-3 [JPC-3]
Summary of the method: as §1

O=c1cc(-c2cccc3c2Sc2ccccc2S3)oc(N2CCOCC2)c1 + CC(=O)Nc1cccc(-n2c(=O)n(C3CC3)c(=O)c3c(Nc4ccc(I)cc4F)n(C)c(=O)c(C)c32)c1 [Trametinib] (partner 0.02 µM)
relative viability (201T; first compound 0.08 µM): 0.722
relative viability (201T; first compound 0.253 µM): 0.735
relative viability (201T; first compound 0.8 µM): 0.727
relative viability (201T; first compound 2.53 µM): 0.673
relative viability (201T; first compound 8 µM): 0.686
relative viability (A-427; first compound 0.08 µM): 0.718
relative viability (A-427; first compound 0.253 µM): 0.867
relative viability (A-427; first compound 0.8 µM): 0.735
relative viability (A-427; first compound 2.53 µM): 0.709
relative viability (A-427; first compound 8 µM): 0.747
relative viability (BEN; first compound 0.08 µM): 0.945
relative viability (BEN; first compound 0.253 µM): 0.982
relative viability (BEN; first compound 0.8 µM): 1.1
relative viability (BEN; first compound 2.53 µM): 0.975
relative viability (BEN; first compound 8 µM): 1.07
relative viability (CAL-12T; first compound 0.08 µM): 0.297
relative viability (CAL-12T; first compound 0.253 µM): 0.333
relative viability (CAL-12T; first compound 0.8 µM): 0.305
relative viability (CAL-12T; first compound 2.53 µM): 0.263
relative viability (CAL-12T; first compound 8 µM): 0.246
relative viability (H3255; first compound 0.08 µM): 0.725
relative viability (H3255; first compound 0.253 µM): 0.588
relative viability (H3255; first compound 0.8 µM): 0.681
relative viability (H3255; first compound 2.53 µM): 0.543
relative viability (H3255; first compound 8 µM): 0.561
relative viability (LC-2-ad; first compound 0.08 µM): 0.882
relative viability (LC-2-ad; first compound 0.253 µM): 0.967
relative viability (LC-2-ad; first compound 0.8 µM): 0.93
relative viability (LC-2-ad; first compound 2.53 µM): 0.858
relative viability (LC-2-ad; first compound 8 µM): 0.858
relative viability (LCLC-97TM1; first compound 0.08 µM): 0.204
relative viability (LCLC-97TM1; first compound 0.253 µM): 0.196
relative viability (LCLC-97TM1; first compound 0.8 µM): 0.175
relative viability (LCLC-97TM1; first compound 2.53 µM): 0.186
relative viability (LCLC-97TM1; first compound 8 µM): 0.181
relative viability (NCI-H1650; first compound 0.08 µM): 0.516
relative viability (NCI-H1650; first compound 0.253 µM): 0.648
relative viability (NCI-H1650; first compound 0.8 µM): 0.503
relative viability (NCI-H1650; first compound 2.53 µM): 0.497
relative viability (NCI-H1650; first compound 8 µM): 0.622
relative viability (NCI-H1651; first compound 0.08 µM): 0.906
relative viability (NCI-H1651; first compound 0.253 µM): 0.709
relative viability (NCI-H1651; first compound 0.8 µM): 0.843
relative viability (NCI-H1651; first compound 2.53 µM): 0.803
relative viability (NCI-H1651; first compound 8 µM): 0.832
relative viability (NCI-H1915; first compound 0.08 µM): 0.293
relative viability (NCI-H1915; first compound 0.253 µM): 0.312
relative viability (NCI-H1915; first compound 0.8 µM): 0.32
relative viability (NCI-H1915; first compound 2.53 µM): 0.285
relative viability (NCI-H1915; first compound 8 µM): 0.264
relative viability (NCI-H1944; first compound 0.08 µM): 0.365
relative viability (NCI-H1944; first compound 0.253 µM): 0.414
relative viability (NCI-H1944; first compound 0.8 µM): 0.396
relative viability (NCI-H1944; first compound 2.53 µM): 0.428
relative viability (NCI-H1944; first compound 8 µM): 0.428
relative viability (NCI-H2023; first compound 0.08 µM): 0.564
relative viability (NCI-H2023; first compound 0.253 µM): 0.647
relative viability (NCI-H2023; first compound 0.8 µM): 0.6
relative viability (NCI-H2023; first compound 2.53 µM): 0.534
relative viability (NCI-H2023; first compound 8 µM): 0.426
relative viability (NCI-H2087; first compound 0.08 µM): 0.143
relative viability (NCI-H2087; first compound 0.253 µM): 0.212
relative viability (NCI-H2087; first compound 0.8 µM): 0.172
relative viability (NCI-H2087; first compound 2.53 µM): 0.172
relative viability (NCI-H2087; first compound 8 µM): 0.179
relative viability (NCI-H441; first compound 0.08 µM): 0.34
relative viability (NCI-H441; first compound 0.253 µM): 0.527
relative viability (NCI-H441; first compound 0.8 µM): 0.55
relative viability (NCI-H441; first compound 2.53 µM): 0.465
relative viability (NCI-H441; first compound 8 µM): 0.424
relative viability (NCI-H460; first compound 0.08 µM): 0.147
relative viability (NCI-H460; first compound 0.253 µM): 0.163
relative viability (NCI-H460; first compound 0.8 µM): 0.113
relative viability (NCI-H460; first compound 2.53 µM): 0.091
relative viability (NCI-H460; first compound 8 µM): 0.1
relative viability (NCI-H520; first compound 0.08 µM): 0.566
relative viability (NCI-H520; first compound 0.253 µM): 0.741
relative viability (NCI-H520; first compound 0.8 µM): 0.78
relative viability (NCI-H520; first compound 2.53 µM): 0.776
relative viability (NCI-H520; first compound 8 µM): 0.637
relative viability (NCI-H596; first compound 0.08 µM): 0.819
relative viability (NCI-H596; first compound 0.253 µM): 0.925
relative viability (NCI-H596; first compound 0.8 µM): 0.823
relative viability (NCI-H596; first compound 2.53 µM): 0.934
relative viability (NCI-H596; first compound 8 µM): 0.801
relative viability (NCI-H650; first compound 0.08 µM): 0.994
relative viability (NCI-H650; first compound 0.253 µM): 1.03
relative viability (NCI-H650; first compound 0.8 µM): 0.959
relative viability (NCI-H650; first compound 2.53 µM): 0.901
relative viability (NCI-H650; first compound 8 µM): 0.977
relative viability (NCI-H661; first compound 0.08 µM): 0.565
relative viability (NCI-H661; first compound 0.253 µM): 0.649
relative viability (NCI-H661; first compound 0.8 µM): 0.527
relative viability (NCI-H661; first compound 2.53 µM): 0.514
relative viability (NCI-H661; first compound 8 µM): 0.471
relative viability (NCI-H727; first compound 0.08 µM): 0.367
relative viability (NCI-H727; first compound 0.253 µM): 0.37
relative viability (NCI-H727; first compound 2.53 µM): 0.311
relative viability (NCI-H727; first compound 8 µM): 0.389
relative viability (PC-3 [JPC-3]; first compound 0.08 µM): 0.542
relative viability (PC-3 [JPC-3]; first compound 0.253 µM): 0.732
relative viability (PC-3 [JPC-3]; first compound 0.8 µM): 0.53
relative viability (PC-3 [JPC-3]; first compound 2.53 µM): 0.617
relative viability (PC-3 [JPC-3]; first compound 8 µM): 0.673
